Where two headings read alike, the source gives them in different places.
Experiments:
USP1-UAF1 = USP1-UAF1 (Homo sapiens, UniProt O94782); experiment: Ubiquitin Rhodamine assay of USP1-UAF1 activity; type: biochemical
Experimental: Certain compounds of the disclosure were assessed for USP1-UAF1 activity in a Ubiquitin Rhodamine assay as described in Biology Example 1.

MDA-MB-436 = experiment: Viability assay, BRCA1 mutant cell line MDA-MB-436; type: cell-based; conditions: BRCA1 mutant MDA-MB-436, read-out: MDA-MB-436 rel IC50
Source text: (§1) Table 1 also indicates IC50 values in a viability assay for a non-isogenic pair of BRCA1 mutant (column 5-MDA-MB-436) and BRCA1 WT (column 6—HCC1954) cell lines. These values indicate the effect of treatment with compound on cell survival.

HCC1954 = experiment: Viability assay, BRCA1 WT cell line HCC1954; type: cell-based; conditions: read-out: HCC1954 rel IC50
Source text: as §1

[1] = Homo sapiens, MDA-MB-436, viability
[2] = Homo sapiens, HCC1954, viability

Sequence of USP1-UAF1 (O94782 whole entry): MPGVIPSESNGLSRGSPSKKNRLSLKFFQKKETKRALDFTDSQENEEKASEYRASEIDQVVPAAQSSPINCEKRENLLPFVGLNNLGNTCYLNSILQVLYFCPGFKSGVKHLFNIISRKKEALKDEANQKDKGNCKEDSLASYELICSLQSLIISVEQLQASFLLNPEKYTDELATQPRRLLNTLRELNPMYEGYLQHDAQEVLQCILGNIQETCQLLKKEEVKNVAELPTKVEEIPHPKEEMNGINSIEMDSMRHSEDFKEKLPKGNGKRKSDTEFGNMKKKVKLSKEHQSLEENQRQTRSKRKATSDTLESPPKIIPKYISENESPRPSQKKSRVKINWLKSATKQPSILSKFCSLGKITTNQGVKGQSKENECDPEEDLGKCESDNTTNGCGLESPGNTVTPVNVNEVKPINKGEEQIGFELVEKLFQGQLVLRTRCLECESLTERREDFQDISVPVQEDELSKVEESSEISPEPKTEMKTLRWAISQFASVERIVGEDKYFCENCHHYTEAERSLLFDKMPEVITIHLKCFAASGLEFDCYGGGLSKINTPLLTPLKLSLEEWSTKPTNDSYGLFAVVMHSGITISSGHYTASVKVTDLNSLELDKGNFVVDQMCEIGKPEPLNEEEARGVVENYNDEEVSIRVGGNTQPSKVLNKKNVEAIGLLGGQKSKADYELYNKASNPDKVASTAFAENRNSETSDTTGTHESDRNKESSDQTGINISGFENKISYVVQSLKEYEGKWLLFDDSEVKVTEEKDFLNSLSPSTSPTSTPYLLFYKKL
Sequence of USP1-UAF1 (Q8TAF3 whole entry partner): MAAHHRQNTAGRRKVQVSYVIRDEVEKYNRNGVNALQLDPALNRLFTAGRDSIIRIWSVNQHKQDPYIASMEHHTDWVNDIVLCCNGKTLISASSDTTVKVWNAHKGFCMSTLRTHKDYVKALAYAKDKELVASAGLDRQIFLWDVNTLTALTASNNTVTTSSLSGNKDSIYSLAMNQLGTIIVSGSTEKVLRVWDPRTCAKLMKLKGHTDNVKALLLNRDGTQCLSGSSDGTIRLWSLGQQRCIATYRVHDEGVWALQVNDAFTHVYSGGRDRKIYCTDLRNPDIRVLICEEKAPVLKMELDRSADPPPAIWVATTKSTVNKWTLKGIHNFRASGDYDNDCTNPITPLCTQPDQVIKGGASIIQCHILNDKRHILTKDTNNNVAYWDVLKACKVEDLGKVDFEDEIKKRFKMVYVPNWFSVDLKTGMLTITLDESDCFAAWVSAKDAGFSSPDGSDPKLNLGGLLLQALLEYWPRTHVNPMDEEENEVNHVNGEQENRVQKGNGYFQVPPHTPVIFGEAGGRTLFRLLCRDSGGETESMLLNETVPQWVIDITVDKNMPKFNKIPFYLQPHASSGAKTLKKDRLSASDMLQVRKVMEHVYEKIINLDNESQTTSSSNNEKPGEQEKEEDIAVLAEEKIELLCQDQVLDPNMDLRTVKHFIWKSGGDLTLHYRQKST

Row | Compound | IC50 (USP1-UAF1) [µM] | IC50 (MDA-MB-436; [1]) [µM] | IC50 (HCC1954; [2]) [µM] | IC50 (MDA-MB-436; viability) [µM] | IC50 (HCC1954; viability) [µM]
1 | CC(C)c1ccccc1-c1ncc2c(n1)n(Cc1ccc(N3CCC(C(F)(F)F)C3)cc1)c(=N)n2C (single isomer, unassigned) [Example A-10e, 2-(2-isopropylphenyl)-7-methyl-9-(4-(3-(trifluoromethyl)pyrrolidin-1-yl)benzyl)-7,9-dihydro-8H-purin-8-imine] | 0.1 to 10 |  |  |  | 
2 | Cc1nc(-c2ccccc2)nc2c1n(C)c(=N)n2Cc1ccc(-c2nc(C(F)(F)F)cn2C)cc1 (single isomer, unassigned) [Example A-15b, 6,7-dimethyl-9-(4-(1-methyl-4-(trifluoromethyl)-1H-imidazol-2-yl)benzyl)-2-phenyl-7,9-dihydro-8H-purin-8-imine] | 0.1 to 10 | 0.25 to 10 | 0.25 to 10 |  | 
3 | CC(C)c1ccccc1-c1ncc2c(n1)n(C(C)C1CCN(c3nc(Cl)cn3C)CC1)c(=N)n2C (single isomer, unassigned) [Example A-26d, 9-(1-(1-(4-chloro-1-methyl-1H-imidazol-2-yl)piperidin-4-yl)ethyl)-2-(2-isopropylphenyl)-7-methyl-7,9-dihydro-8H-purin-8-imine] | 0.1 to 10 |  |  | 0.25 to 10 | ≥ 10
4 | CC(C)c1ccccc1-c1ncc2c(n1)n(Cc1ccc(-c3nccn3C)cc1)c(=N)n2C [Example A-2, 2-(2-isopropylphenyl)-7-methyl-9-(4-(1-methyl-1H-imidazol-2-yl)benzyl)-7H-purin-8(9H)-imine] | 0.1 to 10 | 0.25 to 10 | ≥ 10 |  | 
5 | COc1nc(-c2ccccc2C(C)C)nc2c1n(C)c(=N)n2Cc1ccc(-c2nc(C(F)(F)F)cn2C)cc1 [Example A-20, 2-(2-isopropylphenyl)-6-methoxy-7-methyl-9-(4-(1-methyl-4-(trifluoromethyl)-1H-imidazol-2-yl)benzyl)-7,9-dihydro-8H-purin-8-imine] | 0.1 to 10 | 0.25 to 10 | 0.25 to 10 |  | 
6 | Cn1cc(Cl)nc1-c1ccc(Cn2c(=N)n(C)c3c(C#CC4CC4)nc(-c4ccccc4Cl)nc32)cc1 [Example A-46, 9-(4-(4-chloro-1-methyl-1H-imidazol-2-yl)benzyl)-2-(2-chlorophenyl)-6-(cyclopropylethynyl)-7-methyl-7,9-dihydro-8H-purin-8-imine] |  | 0.25 to 10 | 0.25 to 10 |  | 
7 | Cc1cccc(Cl)c1-c1ncc2c(n1)n(Cc1ccc(-c3nc(C(F)(F)F)cn3C)cc1)c(=N)n2C [Example B-7, 2-(2-chloro-6-methylphenyl)-7-methyl-9-(4-(1-methyl-4-(trifluoromethyl)-1H-imidazol-2-yl)benzyl)-7,9-dihydro-8H-purin-8-imine] | 0.03 to 0.1 |  |  |  | 
8 | CC(C)c1ccccc1-c1ncc2c(n1)n(Cc1ccc(N3C[C@@H](C(F)(F)F)C[C@H]3C)cc1)c(=N)n2C [Example T-024] | 0.1 to 10 |  |  |  | 

More lines, now with the values ahead:

Row | IC50 (USP1-UAF1) [µM] | IC50 (MDA-MB-436; [1]) [µM] | IC50 (HCC1954; [2]) [µM] | IC50 (MDA-MB-436; viability) [µM] | IC50 (HCC1954; viability) [µM] | Compound
9 | 0.1 to 10 |  |  |  |  | CC(C)c1ccccc1-c1ncc2c(n1)n(Cc1ccc(N3CCC(C(F)(F)F)C3)cc1)c(=N)n2C (single isomer, unassigned) [Example A-10d, 2-(2-isopropylphenyl)-7-methyl-9-(4-(3-(trifluoromethyl)pyrrolidin-1-yl)benzyl)-7,9-dihydro-8H-purin-8-imine]
10 | 0.1 to 10 |  |  |  |  | CC(C)c1ccccc1-c1ncc2c(n1)n(Cc1ccc(-c3ncc[nH]3)cc1)c(=N)n2C [Example A-4, 9-(4-(1H-imidazol-2-yl)benzyl)-2-(2-isopropylphenyl)-7-methyl-7H-purin-8(9H)-imine]
11 | 0.1 to 10 | 0.25 to 10 | 0.25 to 10 |  |  | CC(C)c1ccccc1-c1ncc2c(n1)n(Cc1ccc(-c3cc(Cl)cn3C)cc1)c(=N)n2C [Example A-7, 9-(4-(4-chloro-1-methyl-1H-pyrrol-2-yl)benzyl)-2-(2-isopropylphenyl)-7-methyl-7,9-dihydro-8H-purin-8-imine]
12 | 0.1 to 10 |  |  |  |  | CC(C)c1ccccc1-c1ncc2c(n1)n(Cc1ccc(-c3cccn3C)cc1)c(=N)n2C [Example T-088]

From patent publication US20240059689A1, “PURINE DERIVATIVES AS ANTICANCER AGENTS” (Tango Therapeutics, Inc., priority 2021, published 2024)
